According to ChEMBL document CHEMBL1147715, “Gatifloxacin derivatives: synthesis, antimycobacterial activities, and inhibition of Mycobacterium tuberculosis DNA gyrase” (Bioorg Med Chem Lett, 2006):
Values after ≈ are worked out from the molar mass of the structure shown.

Tests used:
[1] = Inhibition of Mycobacterium tuberculosis DNA gyrase
Vero = experiment: Cytotoxicity against Vero cell line at 62.5 ug/ml after 72 hrs; type: functional, cell-based; details: Chlorocebus sabaeus
[2] = test system: Mycobacterium tuberculosis; experiment: Antimycobacterial activity against Mycobacterium tuberculosis H37Rv; type: functional
[3] = test system: Mycobacterium tuberculosis; experiment: Selectivity index (IC50/MIC); type: functional
[4] = test system: Mycobacterium tuberculosis; experiment: Activity against Mycobacterium tuberculosis ATCC 35801 in CD1 mouse at 50 mg/kg assessed as decrease in bacterial load in lung relative to control; type: functional
[5] = test system: Mycobacterium tuberculosis; experiment: Activity against Mycobacterium tuberculosis ATCC 35801 in CD1 mouse at 50 mg/kg assessed as decrease in bacterial load in spleen relative to control; type: functional

SMILES | IC50 [1] [mg/L] | Activity (Vero) | MIC [2] [mg/L] | Selectivity index [3] | Log10 cfu [4] | Log10 cfu [5]
COc1c(N2CCN(CN3C(=O)/C(=N\c4ccc(S(=O)(=O)Nc5ncccn5)cc4)c4cc(F)ccc43)C(C)C2)c(F)cc2c(=O)c(C(=O)O)cn(C3CC3)c12 (centres undefined) | 6 (≈ 7.65 µM) | Not toxic | 0.2 (≈ 0.255 µM) | – | – | –
COc1c(N2CCN(Cn3c(O)c(/N=N/C(=N)S)c4cc(F)ccc43)C(C)C2)c(F)cc2c(=O)c(C(=O)O)cn(C3CC3)c12 (centres undefined) | 8 (≈ 12.8 µM) | Not toxic | 0.1 (≈ 0.16 µM) | – | – | –
COc1c(N2CCN(CN3C(=O)/C(=N\c4ccc(S(=O)(=O)Nc5ncccn5)cc4)c4cc(C)ccc43)C(C)C2)c(F)cc2c(=O)c(C(=O)O)cn(C3CC3)c12 (centres undefined) | 3 (≈ 3.84 µM) | Not toxic | 0.1 (≈ 0.128 µM) | – | – | –
COc1c(N2CCN(Cn3c(O)c(/N=N/C(=O)c4ccncc4)c4cc(Cl)ccc43)C(C)C2)c(F)cc2c(=O)c(C(=O)O)cn(C3CC3)c12 (centres undefined) | 5 (≈ 7.27 µM) | Not toxic | 0.39 (≈ 0.567 µM) | – | – | –
COc1c(N2CCN(Cn3c(O)c(/N=N/C(=O)c4ccncc4)c4ccccc43)C(C)C2)c(F)cc2c(=O)c(C(=O)O)cn(C3CC3)c12 (centres undefined) | 4 (≈ 6.12 µM) | Not toxic | 0.78 (≈ 1.19 µM) | – | – | –
COc1c(N2CCN(Cn3c(O)c(/N=N/C(=O)c4ccncc4)c4cc(F)ccc43)C(C)C2)c(F)cc2c(=O)c(C(=O)O)cn(C3CC3)c12 (centres undefined) | – | Not toxic | 0.78 (≈ 1.16 µM) | – | – | –
COc1c(N2CCN(Cn3c(O)c(/N=N/C(N)=O)c4cc(Cl)ccc43)C(C)C2)c(F)cc2c(=O)c(C(=O)O)cn(C3CC3)c12 (centres undefined) | 4 (≈ 6.39 µM) | Not toxic | 0.39 (≈ 0.623 µM) | – | – | –
COc1c(N2CCN(Cn3c(O)c(/N=N/C(=N)S)c4ccccc43)C(C)C2)c(F)cc2c(=O)c(C(=O)O)cn(C3CC3)c12 (centres undefined) | 5 (≈ 8.23 µM) | Not toxic | 0.2 (≈ 0.329 µM) | – | – | –
COc1c(N2CCN(Cn3c(O)c(/N=N/C(N)=O)c4ccccc43)C(C)C2)c(F)cc2c(=O)c(C(=O)O)cn(C3CC3)c12 (centres undefined) | 3 (≈ 5.07 µM) | Not toxic | 0.0125 (≈ 0.0211 µM) | > 1250 | 4.26 | 5.08
COc1c(N2CCN(Cn3c(O)c(/N=N/C(N)=O)c4cc(C)ccc43)C(C)C2)c(F)cc2c(=O)c(C(=O)O)cn(C3CC3)c12 (centres undefined) | 4.5 (≈ 7.43 µM) | Not toxic | 0.39 (≈ 0.644 µM) | – | – | –
COc1c(N2CCN(Cn3c(O)c(/N=N/C(=N)S)c4cc(Cl)ccc43)C(C)C2)c(F)cc2c(=O)c(C(=O)O)cn(C3CC3)c12 (centres undefined) | 4 (≈ 6.23 µM) | Not toxic | 0.39 (≈ 0.607 µM) | – | – | –
COc1c(N2CCN(Cn3c(O)c(/N=N/C(=N)S)c4cc(C)ccc43)C(C)C2)c(F)cc2c(=O)c(C(=O)O)cn(C3CC3)c12 (centres undefined) | 10 (≈ 16.1 µM) | Not toxic | 0.78 (≈ 1.25 µM) | – | – | –
COc1c(N2CCN(CN3C(=O)/C(=N\c4ccc(S(=O)(=O)Nc5ncccn5)cc4)c4ccccc43)C(C)C2)c(F)cc2c(=O)c(C(=O)O)cn(C3CC3)c12 (centres undefined) | 8 (≈ 10.4 µM) | Not toxic | 0.2 (≈ 0.261 µM) | – | – | –
COc1c(N2CCNC(C)C2)c(F)cc2c(=O)c(C(=O)O)cn(C3CC3)c12 (centres undefined) [GATIFLOXACIN] | 4 (≈ 10.7 µM) | – | 0.2 (≈ 0.533 µM) | – | 5.82 | 6.14
COc1c(N2CCN(Cn3c(O)c(/N=N/C(N)=O)c4cc(F)ccc43)C(C)C2)c(F)cc2c(=O)c(C(=O)O)cn(C3CC3)c12 (centres undefined) | 4 (≈ 6.56 µM) | Not toxic | 0.2 (≈ 0.328 µM) | – | – | –
COc1c(N2CCN(CN3C(=O)/C(=N\c4ccc(S(=O)(=O)Nc5ncccn5)cc4)c4cc(Cl)ccc43)C(C)C2)c(F)cc2c(=O)c(C(=O)O)cn(C3CC3)c12 (centres undefined) | 6 (≈ 7.49 µM) | Not toxic | 0.1 (≈ 0.125 µM) | – | – | –
COc1c(N2CCN(Cn3c(O)c(/N=N/C(=O)c4ccncc4)c4cc(C)ccc43)C(C)C2)c(F)cc2c(=O)c(C(=O)O)cn(C3CC3)c12 (centres undefined) | 5.5 (≈ 8.24 µM) | Not toxic | 0.78 (≈ 1.17 µM) | – | – | –
